Reference: US11028127B2, “Peptides capable of reactivating p53 mutants” (Yeda Research and Development Co. Ltd., priority 2013, dated 2021)

Test system: Mut-p53
Experiment: Total activity score over combined assays (Table 8)
Set-up: scale not given here
Conditions: for Activity Score: Table 10 summary of activity of the peptides tested; for AS (Activity Score): total score of Table 7
Text: Several alternative and complementary methods to screen lead peptide candidates for conformational and functional effects on Mut-p53 were employed. For increased penetration of peptide across cell membranes each peptide contains 3-6 Arginine residues either as part of its sequence or added either at its N-terminus or its C-terminus. […] In-vitro based assays for evaluation were first performed, such as ELISA for assessment of p53 conformation and sequence-specific DNA binding of p53.

Row | Substance | Activity Score | AS (Activity Score)
1 | pCAP1 (EVTFRHSVV) | 32 | 32
2 | pCAP2 (VWVHDSCHANLQNYRNYLLP) | 2 | 2
3 | pCAP3 (FWTQSIKERKMLNEHDFEVR) | 12 | 12
4 | pCAP4 (EHDFEVRGDVVNGRNHQGPK) | 2 | 2
5 | pCAP5 (LEVIYMI) | 2 | 2
6 | pCAP6 (LGIDEDEETETAPE) | 5 | 5
7 | pCAP7 (SPLQTPAAPGAAAGPALSPV) | 6 | 6
8 | pCAP9 (TIIHREDEDEIEW) | 17 | 17
9 | pCAP10 (VAEFAQSIQSRIVEWKERLD) | 8 | 8
10 | pCAP11 (EWKERLDKEFSLSVYQKMKF) | 16 | 16
11 | pCAP12 (GGGGGGGGGGGG) | 0 | 0
12 | pCAP13 (HFSHHLK) | 4 | 4
13 | pCAP14 (HHFSHHWKT) | 9 | 9
14 | pCAP15 (THFSHHLKH) | 12 | 12
15 | pCAP16 (LPNPPERHH) | 24 | 24
16 | pCAP17 (LHSKTLVL) | 23 | 23
17 | pCAP18 (SHQVHTHHNN) | 6 | 6
18 | pCAP19 (NPNTYVPHWMRQ) | 0 | 0
19 | pCAP20 (HHPWTHHQRWS) | 13 | 13
20 | pCAP21 (NHPWQFPNRWTV) | 29 | 29
21 | pCAP22 (SLLIGFGIIRSR) | 5 | 5

Row | Substance | Activity Score | AS (Activity Score)
22 | pCAP23 (IRILMFLIGCGR) | 22 | 22
23 | pCAP24 (LRCLLLLIGRVG) | 23 | 23
24 | pCAP25 (YRRLLIGMMW) | 0 | 0
25 | pCAP26 (DEFHSFYTARQTG) | 0 | 0
26 | pCAP27 (VHEVTHHWL) | 5 | 5
27 | pCAP28 (HTDSHPHHHHPH) | 24 | 24
28 | pCAP29 (KPDSPRV) | 0 | 0
29 | pCAP30 (TIHPSIS) | 16 | 16
30 | pCAP31 (PPYSQFLQWYLS) | 0 | 0
31 | pCAP32 (TSPLQSLK) | 4 | 4
32 | pCAP33 (SILTLRLRRLRR) | 16 | 16
33 | pCAP34 (SILTLSRIVLGWW) | 14 | 14
34 | pCAP35 (GAMHLPWHMGTL) | 28 | 28
35 | pCAP36 (YPTQGHLR) | 39 | 39
36 | pCAP37 (KLQVPIK) | 6 | 6
37 | pCAP38 (WTLSNYL) | 2 | 2
38 | pCAP39 (DSLHSTY) | 2 | 2
39 | pCAP41 (WHHRQQIPRPLE) | 2 | 2
40 | pCAP42 (MHPPDWYHHTPKH) | 29 | 29
41 | pCAP43 (TDSHSHH) | 15 | 15
42 | pCAP44 (VPHIHEFT) | 16 | 16

Row | Substance | Activity Score | AS (Activity Score)
43 | pCAP45 (HDTHNAHVG) | 0 | 0
44 | pCAP46 (ASWQALALYAAGW) | 34 | 34
45 | pCAP47 (TLYLPHWHRH) | 14 | 14
46 | pCAP48 (IPMNFTSHSLRQ) | 13 | 13
47 | pCAP49 (TRILCIVMM) | 8 | 8
48 | pCAP50 (WSEYDIPTPQIPP) | 0 | 0
49 | pCAP51 (AILTLILRRVIWP) | 4 | 4
50 | pCAP52 (SPYPIRT) | 3 | 3
51 | pCAP53 (ILVIIQRIM) | 3 | 3
52 | pCAP54 (IRGRIIR) | 26 | 26
53 | pCAP55 (FLLPEPDENTRW) | 8 | 8
54 | pCAP56 (ATPFHQT) | 5 | 5
55 | pCAP57 (LMSNAQY) | 8 | 8
56 | pCAP58 (SILPLFLIRRSG) | 5 | 5
57 | pCAP59 (FLIRRSG) | 9 | 9
58 | pCAP60 (SFILFIRRGRLG) | 40 | 40
59 | pCAP61 (KDLPFYSHLSRQ) | 17 | 17
60 | pCAP62 (YELPHHAYPA) | 10 | 10
61 | pCAP63 (HNHHHSQHTPQH) | 9 | 9
62 | pCAP64 (APSIFTPHAWRQ) | 2 | 2
63 | pCAP65 (THFSHHLKHRRRRRRRRRR) | 17 | 17

Row | Substance | Activity Score | AS (Activity Score)
64 | pCAP66 (THFSHHLKGGGRRQRRRP) | 2 | 2
65 | pCAP67 (LHSKTLVLGGGRRRRGDR) | 2 | 2
66 | pCAP68 (YRRLLIGMMWRRRRRRRRRRR) | 39 | 39
67 | pCAP69 (SILTLSRRRRRRRRRR) | 0 | 0
68 | pCAP70 (SILTLSRGRKKRRQRRRR) | 33 | 33
69 | pCAP71 (WTLSNYLGGRKKRRQRRRR) | 2 | 2
70 | pCAP72 (SCRCRLRRRRRRRRRR) | 5 | 5
71 | pCAP73 (SCRCRLRGDRGDR) | 0 | 0
72 | pCAP74 (IRGRIIRRKKRRQRRRRGDR) | 6 | 6
73 | pCAP75 (TRILCIVRKKRRQRRRRGDR) | 32 | 32
74 | pCAP76 (GGGGGGGGGRRRRRRR) | 0 | 0
75 | pCAP77 (SEYLCSSLDAAG) | 0 | 0
76 | pCAP78 (GESFVQHVFRQN) | 0 | 0
77 | pCAP79 (SVHHHHRMHLVA) | 0 | 0
78 | pCAP80 (HLHKHHYKDSRM) | 9 | 9
79 | pCAP81 (VRCIFRGIWVRL) | 2 | 2
80 | pCAP82 (QIPHRSSTALQL) | 6 | 6
81 | pCAP83 (HSSHHHPVHSWN) | 25 | 25
82 | pCAP84 (GRRRFCM) | 0 | 0
83 | pCAP85 (KLTIHHH) | 0 | 0
